Experimental data reported in publication PMC9490041, “Determinants of affinity, specificity, and phase separation in a supramodule from Post-synaptic density protein 95” (iScience, 2022).
Like-named read-outs stand apart in the source and are kept apart here. Ends that are not written are not given here.

Columns and labels:
Experiment in all cases: FP displacement (competition) of FITC-15 AA CRIPT by library peptide, IC50 and Ki
PSG G335A (PSD-95) = conditions: for IC50: read-out: IC50 (µM), PSG G335A; for Ki: read-out: Ki (µM), PSG G335A
PSG G322A (PSD-95) = conditions: for IC50: read-out: IC50 (µM), PSG G322A; for Ki: read-out: Ki (µM), PSG G322A
PSG G322A G335A (PSD-95) = conditions: for IC50: read-out: IC50 (µM), PSG G322A G335A
[1] = FP displacement of FITC-15 AA CRIPT probe by acetylated PSD library peptide
[2] = FP displacement of FITC-15 AA CRIPT probe by acetylated PSD library peptide (P-13 to P0 plus extra N-terminal Y)
[3] = FP displacement of FITC-15 AA CRIPT probe by PSD library peptide, protein PSG G322A
[4] = read-out: Ki (µM), PSG G322A G335A, FP displacement of FITC-15 AA CRIPT probe by acetylated PSD library peptide
[5] = FP displacement of FITC-15 AA CRIPT probe by PSD library peptide, protein PSG G335A
[6] = FP displacement of FITC-15 AA CRIPT probe by PSD library peptide, protein PSG G322A G335A
[7] = read-out: Ki (µM), PSG G322A G335A, FP displacement of FITC-15 AA CRIPT probe by PSD library peptide, protein PSG G322A G335A

| Compound | IC50 (PSG G335A (PSD-95); [1]) [µM] | Ki (PSG G335A (PSD-95); [1]) [µM] | IC50 (PSG G322A (PSD-95); [1]) [µM] | Ki (PSG G322A (PSD-95); [1]) [µM] | IC50 (PSG G322A G335A (PSD-95); [2]) [µM] | IC50 (PSG G322A (PSD-95); [3]) [µM] | Ki (PSG G322A G335A (PSD-95); [4]) [µM] | IC50 (PSG G322A G335A (PSD-95); [6]) [µM] | Ki (PSG G322A G335A (PSD-95); [7]) [µM] | further results |
| --- | --- | --- | --- | --- | --- | --- | --- | --- | --- | --- |
| CC[C@H](C)[C@H](NC(=O)[C@H](CC(=O)O)NC(=O)[C@H](CCC(N)=O)NC(=O)CNC(=O)[C@@H](NC(=O)[C@H](CC(C)C)NC(=O)[C@@H]1CCCN1C(=O)[C@H](Cc1ccc(O)cc1)NC(C)=O)C(C)C)C(=O)N[C@H](C(=O)N[C@@H](CC(=O)O)C(=O)N[C@@H](CC(C)C)C(=O)N[C@@H](CCC(N)=O)C(=O)N[C@H](C(=O)N[C@@H](CCC(=O)O)C(=O)N[C@H](C(=O)O)C(C)C)[C@@H](C)O)[C@@H](C)CC [ADGRB1] | 245 | 87 | 258 | 112 | 112 | – | – | – | – | Ki (PSG G322A G335A (PSD-95); FP displacement of 5 nM FITC-15 AA CRIPT by non-labeled acetylated peptide, room temperature, Ki from IC50, PSG G322A G335A): 39 µM |
| CC[C@H](C)[C@H](NC(=O)[C@H](CCCNC(=N)N)NC(=O)[C@H](CCCNC(=N)N)NC(=O)[C@H](CCC(N)=O)NC(=O)[C@H](CC(N)=O)NC(=O)[C@H](CC(C)C)NC(=O)CNC(=O)[C@H](CO)NC(=O)[C@H](Cc1ccc(O)cc1)NC(=O)[C@H](CC(C)C)NC(=O)[C@H](CC(=O)O)NC(=O)[C@H](CCCNC(=N)N)NC(=O)[C@H](CCC(N)=O)NC(=O)CNC(=O)[C@H](Cc1ccc(O)cc1)NC(C)=O)C(=O)O [CD3E] | – | – | – | – | – | 757 | – | – | – | Ki (PSG G322A (PSD-95); [3]): 328 µM |
| CSCC[C@H](NC(=O)[C@H](CC(N)=O)NC(=O)[C@H](CCCCN)NC(=O)[C@H](CC(C)C)NC(=O)[C@@H](NC(=O)[C@H](CC(=O)O)NC(=O)[C@H](Cc1ccc(O)cc1)NC(C)=O)C(C)C)C(=O)N[C@H](C(=O)N[C@@H](CC(=O)O)C(=O)N[C@@H](CCCCN)C(=O)N[C@@H](C)C(=O)N1CCC[C@H]1C(=O)N1CCC[C@H]1C(=O)NCC(=O)N[C@H](C(=O)O)C(C)C)[C@@H](C)O [CK2N1] | – | – | 824 | 357 | 940 | – | 325 | – | – | – |
| CC(=O)N[C@@H](Cc1ccc(O)cc1)C(=O)N[C@@H](Cc1ccc(O)cc1)C(=O)N[C@@H](CCC(=O)O)C(=O)N[C@H](C(=O)N[C@@H](CO)C(=O)N[C@@H](Cc1c[nH]cn1)C(=O)N[C@@H](Cc1ccc(O)cc1)C(=O)N1CCC[C@H]1C(=O)N[C@@H](C)C(=O)N[C@@H](CO)C(=O)N1CCC[C@H]1C(=O)N[C@@H](CC(=O)O)C(=O)N[C@@H](CO)C(=O)N[C@@H](Cc1c[nH]c2ccccc12)C(=O)N[C@H](C(=O)O)C(C)C)[C@@H](C)O [CTND2] | – | – | – | – | – | 694 | – | 465 | 161 | IC50 (PSG G335A (PSD-95); [5]): 1020 µM; Ki (PSG G335A (PSD-95); [5]): 364 µM; Ki (PSG G322A (PSD-95); [3]): 301 µM |
| CC(=O)N[C@@H](Cc1ccc(O)cc1)C(=O)N[C@@H](Cc1ccccc1)C(=O)N[C@H](C(=O)N[C@@H](Cc1ccc(O)cc1)C(=O)N[C@@H](Cc1c[nH]cn1)C(=O)N[C@H](C(=O)N[C@@H](CO)C(=O)N[C@@H](CC(=O)O)C(=O)NCC(=O)N[C@@H](CC(=O)O)C(=O)N[C@@H](C)C(=O)N[C@@H](CC(C)C)C(=O)N[C@@H](CC(C)C)C(=O)N[C@@H](CC(C)C)C(=O)N[C@@H](CC(C)C)C(=O)O)[C@@H](C)O)[C@@H](C)O [CX3C1] | – | – | – | – | – | – | – | 740 | 256 | – |
| Ac-YEKAASREEPIEWEF [CUX1] | – | – | – | – | – | 1560 | – | 1280 | – | IC50 (PSG G335A (PSD-95); [5]): 1360 µM; Ki (PSG G335A (PSD-95); [5]): 485 µM; Ki (PSG G322A (PSD-95); [3]): 679 µM |
| Ac-YEPPEPKKSRRSVLL [CDC42] | – | – | – | – | – | 952 | – | 1100 | 381 | IC50 (PSG G335A (PSD-95); [5]): 1180 µM; Ki (PSG G335A (PSD-95); [5]): 421 µM |
| Ac-YERAANREEALEWEF [CUX2] | – | – | – | – | – | 701 | – | – | 351 | Ki (PSG G322A (PSD-95); [3]): 304 µM |
| Ac-YQSGPFIWIPSKEKL [DLG2] | 2120 | 758 | 1420 | 615 | 734 | – | 254 | – | – | – |

The next lines start with results.

| IC50 (PSG G335A (PSD-95); [1]) [µM] | Ki (PSG G335A (PSD-95); [1]) [µM] | IC50 (PSG G322A (PSD-95); [1]) [µM] | Ki (PSG G322A (PSD-95); [1]) [µM] | IC50 (PSG G322A G335A (PSD-95); [2]) [µM] | IC50 (PSG G322A (PSD-95); [3]) [µM] | Ki (PSG G322A G335A (PSD-95); [4]) [µM] | IC50 (PSG G322A G335A (PSD-95); [6]) [µM] | Ki (PSG G322A G335A (PSD-95); [7]) [µM] | Compound | further results |
| --- | --- | --- | --- | --- | --- | --- | --- | --- | --- | --- |
| 2010 | 718 | 1460 | 634 | 2020 | – | 698 | – | – | CC[C@H](C)[C@H](NC(=O)[C@H](CO)NC(=O)[C@@H](NC(=O)[C@@H](NC(=O)[C@@H]1CCCN1C(=O)[C@H](CC(C)C)NC(=O)[C@H](C)NC(=O)[C@@H]1CCCN1C(=O)[C@H](Cc1ccc(O)cc1)NC(C)=O)[C@@H](C)O)C(C)C)C(=O)N[C@@H](CO)C(=O)N[C@@H](CO)C(=O)N[C@@H](CO)C(=O)N[C@@H](C)C(=O)N[C@@H](CCC(=O)O)C(=O)N[C@H](C(=O)O)C(C)C [DOC10] | – |
| 673 | 240 | 660 | 286 | 570 | – | 197 | – | – | CC(=O)N[C@@H](Cc1ccc(O)cc1)C(=O)N[C@@H](CC(C)C)C(=O)N[C@@H](Cc1c[nH]cn1)C(=O)NCC(=O)N[C@@H](Cc1c[nH]cn1)C(=O)N[C@@H](CCCNC(=N)N)C(=O)N[C@@H](Cc1ccc(O)cc1)C(=O)N[C@@H](CO)C(=O)N[C@@H](CO)C(=O)NCC(=O)N[C@@H](CO)C(=O)N[C@@H](CCCNC(=N)N)C(=O)N[C@@H](CO)C(=O)N[C@@H](CC(C)C)C(=O)N[C@H](C(=O)O)C(C)C [IQEC3] | – |
| – | – | – | – | – | – | – | 1120 | 388 | CC[C@H](C)[C@H](NC(=O)[C@H](CCC(=O)O)NC(=O)[C@@H](NC(=O)[C@H](C)NC(=O)[C@@H](NC(=O)[C@@H](NC(=O)[C@H](CC(=O)O)NC(=O)[C@H](CCC(=O)O)NC(=O)[C@H](Cc1ccc(O)cc1)NC(=O)[C@@H]1CCCN1C(=O)[C@@H](NC(=O)[C@H](CC(=O)O)NC(=O)[C@H](C)NC(=O)CNC(=O)[C@H](Cc1ccc(O)cc1)NC(C)=O)[C@@H](C)CC)[C@@H](C)CC)[C@@H](C)CC)[C@@H](C)O)C(=O)O [LZTS1] | IC50 (PSG G335A (PSD-95); [5]): 648 µM; Ki (PSG G335A (PSD-95); [5]): 231 µM |
| – | – | – | – | – | 1210 | – | 944 | 327 | CC(=O)N[C@@H](Cc1ccc(O)cc1)C(=O)N[C@@H](CC(=O)O)C(=O)N[C@@H](CCCCN)C(=O)N[C@@H](CCCNC(=N)N)C(=O)N[C@@H](CC(=O)O)C(=O)N[C@@H](CO)C(=O)N[C@@H](CCC(=O)O)C(=O)N[C@@H](CCC(=O)O)C(=O)N[C@@H](CCC(=O)O)C(=O)N[C@@H](CO)C(=O)N[C@@H](CCC(=O)O)C(=O)N[C@@H](CO)C(=O)N[C@H](C(=O)N[C@@H](C)C(=O)N[C@@H](CC(C)C)C(=O)O)[C@@H](C)O [RHG44] | Ki (PSG G322A (PSD-95); [3]): 526 µM |
| 1130 | 404 | 756 | 328 | 994 | – | 344 | – | – | CC[C@H](C)[C@H](NC(=O)[C@H](Cc1ccccc1)NC(=O)[C@H](Cc1ccc(O)cc1)NC(=O)[C@@H]1CCCN1C(=O)[C@H](CCC(N)=O)NC(=O)[C@H](Cc1ccc(O)cc1)NC(C)=O)C(=O)N[C@H](C(=O)N[C@@H](CC(N)=O)C(=O)N[C@@H](CO)C(=O)N[C@@H](CCCCN)C(=O)N[C@H](C(=O)N[C@@H](CCC(=O)O)C(=O)N[C@H](C(=O)N[C@H](C(=O)N[C@H](C(=O)O)C(C)C)[C@@H](C)O)C(C)C)[C@@H](C)O)[C@@H](C)O [SHSA9] | – |
| – | – | 867 | 376 | 880 | – | 304 | – | – | CC(=O)N[C@@H](Cc1ccc(O)cc1)C(=O)N[C@H](C(=O)N[C@@H](CCC(=O)O)C(=O)N[C@@H](CO)C(=O)N[C@@H](CC(C)C)C(=O)N[C@@H](CO)C(=O)N[C@@H](CO)C(=O)N[C@@H](CCC(=O)O)C(=O)N[C@@H](CO)C(=O)N[C@H](C(=O)N[C@@H](C)C(=O)N[C@H](C(=O)N[C@@H](CO)C(=O)N1CCC[C@H]1C(=O)N[C@H](C(=O)O)C(C)C)[C@@H](C)O)[C@@H](C)O)C(C)C [TNR16] | – |
| 721 | 257 | 1730 | 752 | 1810 | – | 625 | – | – | CC(=O)N[C@@H](Cc1ccc(O)cc1)C(=O)N[C@@H](C)C(=O)N1CCC[C@H]1C(=O)N[C@@H](C)C(=O)N[C@H](C(=O)N[C@@H](CO)C(=O)N1CCC[C@H]1C(=O)N1CCC[C@H]1C(=O)N[C@@H](CCC(=O)O)C(=O)N[C@@H](CCCNC(=N)N)C(=O)N[C@@H](C)C(=O)N[C@@H](CC(C)C)C(=O)N[C@@H](CO)C(=O)N[C@@H](CCCCN)C(=O)N[C@@H](CC(C)C)C(=O)O)[C@@H](C)O [TUTLB] | – |
| 1510 | 538 | 651 | 282 | 881 | – | 305 | – | – | Ac-YDVVAVYPNAKVELV [PDLI4] | – |
| 1020 | 365 | 1510 | 654 | 2830 | – | 979 | – | – | Ac-YQEQNKVLWIPASPL [DLG5] | – |
| – | – | – | – | 1070 | – | 370 | – | – | Ac-YQETLFVGNDQVSEI [TM108] | – |
| – | – | – | – | – | 914 | – | – | – | Ac-YVMQDESFPASKIEL [MAP1B] | Ki (PSG G322A (PSD-95); [3]): 396 µM |
| – | – | – | – | – | – | – | 1700 | 590 | Ac-YYETGSLSFAGDERI [SEZ6] | – |
